Results published in EP2465840A1, “Terpene ether” (CABB GmbH, priority 2010, dated 2012).

Assays:
Dynamic surface tension = assay type: physicochemical
Description: (§1) Die Eigenschaften von mehreren erfindungsgemäßen Terpenethern werden in Tabelle 19 zusammengefasst und mit denen anderen Terpenethern verglichen. Tabelle 19

[1] = Foam height of terpene ether at t=0; assay type: physicochemical
Description: as §1

## CC(=O)OCC(COC1CC2CCC1(C)C2(C)C)OC(C)=O (stereo not drawn) [NP7, Diacetin-isobornytether]
Dynamic surface tension
  Dynamische Oberflächenspannung Blasenfrequenz 1 Hz: 52 mN/m
  Dynamische Oberflächenspannung Blasenfrequenz 3 Hz: 57 mN/m
[1]
  Schaumhöhe t=0: 0 mm

## CC1(C)C2CCC1(C)C(OCCOCCOCCO)C2 (stereo not drawn) [NP 6, Triethylenglykol-isobornylether]
Dynamic surface tension
  Dynamische Oberflächenspannung Blasenfrequenz 1 Hz: 43 mN/m
  Dynamische Oberflächenspannung Blasenfrequenz 3 Hz: 45 mN/m
[1]
  Schaumhöhe t=0: 0 mm

## CC1(C)C2CCC1(C)C(OCCOC1CC3CCC1(C)C3(C)C)C2 (stereo not drawn) [NP 23, Ethylenglykol-diisobornylether]
Dynamic surface tension
  Dynamische Oberflächenspannung Blasenfrequenz 1 Hz: 66 mN/m
  Dynamische Oberflächenspannung Blasenfrequenz 3 Hz: 68 mN/m
[1]
  Schaumhöhe t=0: 6 mm

## Dipropylenglykol-düsobornylether [NP 22]
Dynamic surface tension
  Dynamische Oberflächenspannung Blasenfrequenz 1 Hz: 64 mN/m
  Dynamische Oberflächenspannung Blasenfrequenz 3 Hz: 68 mN/m
[1]
  Schaumhöhe t=0: 0 mm

## Milchsäure-isobornylether [NP 14]
Dynamic surface tension
  Dynamische Oberflächenspannung Blasenfrequenz 1 Hz: 45 mN/m
  Dynamische Oberflächenspannung Blasenfrequenz 3 Hz: 47 mN/m
[1]
  Schaumhöhe t=0: 0 mm

## S-(-)-Milchsäuremethylester-isobornylether [NP2]
Dynamic surface tension
  Dynamische Oberflächenspannung Blasenfrequenz 1 Hz: 65 mN/m
  Dynamische Oberflächenspannung Blasenfrequenz 3 Hz: 67 mN/m
[1]
  Schaumhöhe t=0: 0 mm

## Tripropylenglykol-isobornylether [NP 3]
Dynamic surface tension
  Dynamische Oberflächenspannung Blasenfrequenz 1 Hz: 45 mN/m
  Dynamische Oberflächenspannung Blasenfrequenz 3 Hz: 63 mN/m
[1]
  Schaumhöhe t=0: 0 mm
